According to US20250282754A1, “BICYCLIC COMPOUNDS AND THEIR USE AS PEST CONTROL AGENTS” (Pl Industries Ltd., priority 2022, published 2025):

Key:
Assay type in all cases: in vivo
Nilaparvata lugens = Nilaparvata lugens seedling dip test (paddy seedlings, third instar nymphs); conditions: dead and moribund third instar nymphs 72 h after release, compared to untreated controls, read-out: percent mortality
How it was run: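 Paddy seedlings dipped 10 s in compound diluted with 0.01% Triton-X, shade dried, then infested with 15 third-instar nymphs at 25 °C, 75% RH. Mortality (dead plus moribund) scored at 72 h relative to untreated controls.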

Myzus persicae = Myzus persicae leaf dip test (capsicum leaves, third instar nymphs); conditions: foliar, dead and moribund third instar nymphs 72 h after release, compared to untreated controls, read-out: percent mortality
Method: The leaf dip method was used for testing, wherein the required quantity of the compound was weighed and dissolved in a tube containing a solvent solution. The tube was put on a vortex at 2000 rpm for proper mixing and then diluted with a 0.01% Triton-X solution to the desired test concentration. Capsicum leaves were dipped in the compound solution for 10 seconds, shade dried for 20 min and then placed, with the abaxial side of the leaf up, in single cells of a bio-assay tray containing 4 ml of a solidified 1% agar-agar solution. Known numbers of third instar nymphs of Myzus persicae, collected in petri plates, were released into the cell with the treated leaf and the cell was covered with a perforated lid for better aeration. The trays were kept in a plant growth chamber at a temperature of 25° C. and a relative humidity of 70%. Observations on dead, moribund and alive nymphs were recorded 72 h after the release. Percent mortality was calculated by combining dead and moribund nymphs and comparing the result with the one of the untreated controls. The compounds

Bemisia tabaci = Bemisia tabaci leaf dip test (brinjal leaves, whitefly adults); conditions: foliar, dead and moribund whitefly adults 72 h after release, compared to untreated controls, read-out: percent mortality
How it was run: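 Brinjal leaves were dipped 10 s in compound diluted in 0.01% Triton-X, dried, and placed on agar, then exposed to freshly emerged whitefly adults at 25° C, 70% RH. Dead plus moribund adults were counted at 72 h, and percent mortality was calculated relative to untreated controls.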

| Compound | mortality at 300 ppm (Nilaparvata lugens) | mortality at 300 ppm (Myzus persicae) | mortality at 300 ppm (Bemisia tabaci) |
| --- | --- | --- | --- |
| COc1nn(-c2ccc3nn(-c4cncc(F)c4)cc3c2)c(=O)n1C [Compound 112, 2-(2-(5-fluoropyridin-3-yl)-2H-indazol-5-yl)-5-methoxy-4-methyl-2,4-dihydro-3H-1,2,4-triazol-3-one] | ≥ 70% | ≥ 70% |  |
| COCCS(C)(=O)=Nc1ccc2nn(-c3cccnc3)cc2n1 (centres unmarked) [Compound 236] | ≥ 70% | ≥ 70% | ≥ 70% |
| CCS(=O)(CC)=Nc1cccc2nn(-c3cccnc3)cc12 [Compound 73] | ≥ 70% | ≥ 70% | ≥ 70% |
| CS(C)(=O)=Nc1cnc2nn(-c3cccnc3)cc2c1 [Compound 146] | ≥ 70% | ≥ 70% |  |
| CCOc1nn(-c2ccc3nn(-c4cccnc4)cc3c2)c(=O)n1Cc1ccc(F)cc1 [Compound 337, 5-ethoxy-4-(4-fluorobenzyl)-2-(2-(pyridin-3-yl)-2H-indazol-5-yl)-2,4-dihydro-3H-1,2,4-triazol-3-one] | ≥ 70% | ≥ 70% | ≥ 70% |
| CCN=S(=O)(c1ccc2nn(-c3cncnc3)cc2c1)C(C)C (centres unmarked) [Compound 419] | ≥ 70% | ≥ 70% | ≥ 70% |
| CCN=S(=O)(CC1CC1)c1ccc2nn(-c3cccnc3)cc2c1 (centres unmarked) [Compound 388] | ≥ 70% | ≥ 70% |  |
| CCS(=O)(=Nc1cnc2nn(-c3cccnc3)cc2c1)C(C)C (centres unmarked) [Compound 148] | ≥ 70% | ≥ 70% |  |
| CS(C)(=O)=Nc1ccc2nn(-c3cccnc3)cc2c1 [Compound 1] | ≥ 70% | ≥ 70% | ≥ 70% |
| CCN=S(=O)(CC)c1ccc2nn(-c3cncnc3)cc2c1 (centres unmarked) [Compound 457] | ≥ 70% | ≥ 70% | ≥ 70% |
| CCS(=O)(CC)=Nc1ccc2nn(-c3cccnc3)cc2c1 [Compound 3] | ≥ 70% | ≥ 70% |  |
| COc1nn(-c2ccc3nn(-c4cccnc4)cc3c2)c(=O)n1Cc1ccc(Cl)cc1 [Compound 354, 4-(4-chlorobenzyl)-5-methoxy-2-(2-(pyridin-3-yl)-2H-indazol-5-yl)-2,4-dihydro-3H-1,2,4-triazol-3-one] | ≥ 70% | ≥ 70% | ≥ 70% |
| CCS(C)(=O)=Nc1ccc2nn(-c3cncnc3)cc2n1 (centres unmarked) [Compound 314] |  | ≥ 70% | ≥ 70% |
| CCCS(C)(=O)=Nc1ccc2nn(-c3cccnc3)cc2n1 (centres unmarked) [Compound 239] |  | ≥ 70% | ≥ 70% |
| CCS(C)(=O)=Nc1cnc2nn(-c3cccnc3)cc2c1 (centres unmarked) [Compound 147] | ≥ 70% | ≥ 70% |  |
| CCCS(=N)(=O)c1ccc2nn(-c3cncc(F)c3)cc2c1 (centres unmarked) [Compound 478, (2-(5-fluoropyridin-3-yl)-2H-indazol-5-yl)(imino)(propyl)-λ^6-sulfanone] |  | ≥ 70% | ≥ 70% |
| CCS(=O)(=Nc1ccc2nn(-c3cccnc3)cc2c1)C(C)C (centres unmarked) [Compound 29] | ≥ 70% | ≥ 70% | ≥ 70% |
| CC(C)CS(=N)(=O)c1ccc2nn(-c3cccnc3)cc2c1 (centres unmarked) [Compound 557, imino(isobutyl)(2-(pyridin-3-yl)-2H-indazol-5-yl)-λ^6-sulfanone] |  | ≥ 70% | ≥ 70% |
| CCS(=O)(=Nc1ccc2nn(-c3cncc(F)c3)cc2c1)C(C)C (centres unmarked) [Compound 41] | ≥ 70% | ≥ 70% |  |
| CCS(C)(=O)=Nc1ccc2nn(-c3cccnc3)cc2c1 (centres unmarked) [Compound 2] | ≥ 70% | ≥ 70% |  |
| CC(C)S(=O)(CC1CC1)=Nc1ccc2nn(-c3cccnc3)cc2n1 (centres unmarked) [Compound 288] |  | ≥ 70% | ≥ 70% |
| COCCS(C)(=O)=Nc1ccc2nn(-c3cncnc3)cc2n1 (centres unmarked) [Compound 237] |  | ≥ 70% | ≥ 70% |

| Compound | mortality at 300 ppm (Nilaparvata lugens) | mortality at 300 ppm (Myzus persicae) | mortality at 300 ppm (Bemisia tabaci) |
| --- | --- | --- | --- |
| CCS(=O)(=Nc1ccc2nn(-c3cncc(F)c3)cc2n1)C(C)C (centres unmarked) [Compound 312] |  | ≥ 70% | ≥ 70% |
| CCS(=O)(=Nc1ccc2nn(-c3cncnc3)cc2c1)C(C)C (centres unmarked) [Compound 32] | ≥ 70% | ≥ 70% | ≥ 70% |
| CS(C)(=O)=NC(=O)c1cccc2nn(-c3cccnc3)cc12 [Compound 92, N-(dimethyl(oxo)-λ^6-sulfaneylidene)-2-(pyridin-3-yl)-2H-indazole-4-carboxamide] | ≥ 70% | ≥ 70% |  |
| CCCS(=O)(CC)=Nc1ccc2nn(-c3cccnc3)cc2c1 (centres unmarked) [Compound 137] | ≥ 70% | ≥ 70% |  |
| N=S(=O)(CC1CC1)c1ccc2nn(-c3cccnc3)cc2c1 (centres unmarked) [Compound 386, (cyclopropylmethyl)(imino)(2-(pyridin-3-yl)-2H-indazol-5-yl)-λ^6-sulfanone] | ≥ 70% | ≥ 70% | ≥ 70% |
| CC(C)S(C)(=O)=Nc1ccc2nn(-c3cccnc3)cc2n1 (centres unmarked) [Compound 238] | ≥ 70% | ≥ 70% | ≥ 70% |
| CCS(=O)(=Nc1cccc2nn(-c3cccnc3)cc12)C(C)C (centres unmarked) [Compound 71] | ≥ 70% | ≥ 70% | ≥ 70% |
| O=S(CCC(F)(F)F)(=Nc1ccc2nn(-c3cncnc3)cc2c1)c1ccc(F)cc1 (centres unmarked) [Compound 64] | ≥ 70% | ≥ 70% |  |
| COc1nn(-c2ccc3nn(-c4cncnc4)cc3c2)c(=O)n1C [Compound 119, 5-methoxy-4-methyl-2-(2-(pyrimidin-5-yl)-2H-indazol-5-yl)-2,4-dihydro-3H-1,2,4-triazol-3-one] |  | ≥ 70% | ≥ 70% |
| CCn1c(OC)nn(-c2ccc3nn(-c4cccnc4)cc3c2)c1=O [Compound 123, 4-ethyl-5-methoxy-2-(2-(pyridin-3-yl)-2H-indazol-5-yl)-2,4-dihydro-3H-1,2,4-triazol-3-one] |  | ≥ 70% | ≥ 70% |
| CCN=S(=O)(c1ccc2nn(-c3cncc(F)c3)cc2c1)C(C)C (centres unmarked) [Compound 397] | ≥ 70% | ≥ 70% | ≥ 70% |
| COc1nn(-c2ccc3nn(-c4cccnc4)cc3c2)c(=O)n1Cc1ccc(F)cc1 [Compound 124, 4-(4-fluorobenzyl)-5-methoxy-2-(2-(pyridin-3-yl)-2H-indazol-5-yl)-2,4-dihydro-3H-1,2,4-triazol-3-one] |  | ≥ 70% | ≥ 70% |
| CCS(=N)(=O)c1ccc2nn(-c3cncnc3)cc2c1 (centres unmarked) [Compound 455, ethyl(imino)(2-(pyrimidin-5-yl)-2H-indazol-5-yl)-λ^6-sulfanone] |  | ≥ 70% | ≥ 70% |
| CCN=S(=O)(CC)c1ccc2nn(-c3cncc(F)c3)cc2c1 (centres unmarked) [Compound 461] | ≥ 70% | ≥ 70% | ≥ 70% |
| CC(C)S(=O)(=Nc1ccc2nn(-c3cccnc3)cc2c1)C(C)C [Compound 28] | ≥ 70% | ≥ 70% | ≥ 70% |
| N=S(=O)(CCCF)c1ccc2nn(-c3cncc(F)c3)cc2c1 (centres unmarked) [Compound 482, (3-fluoropropyl)(2-(5-fluoropyridin-3-yl)-2H-indazol-5-yl)(imino)-λ^6-sulfanone] |  | ≥ 70% | ≥ 70% |
| CC(=O)N=S(=O)(c1ccc2nn(-c3cccnc3)cc2c1)C(C)C (centres unmarked) [Compound 389] | ≥ 70% | ≥ 70% | ≥ 70% |
| CCS(=N)(=O)c1ccc2nn(-c3cccnc3)cc2c1 (centres unmarked) [Compound 387, ethyl(imino)(2-(pyridin-3-yl)-2H-indazol-5-yl)-λ^6-sulfanone] | ≥ 70% | ≥ 70% | ≥ 70% |
| CC(C)S(=O)(=NC1CC1)c1ccc2nn(-c3cccnc3)cc2c1 (centres unmarked) [Compound 406] | ≥ 70% | ≥ 70% | ≥ 70% |
| CC(C)S(=O)(=Nc1ccc2nn(-c3cccnc3)cc2n1)C(C)C [Compound 255] |  | ≥ 70% | ≥ 70% |
| CCS(=O)(=Nc1ccc2nn(-c3cccnc3)cc2n1)C(C)C (centres unmarked) [Compound 240] | ≥ 70% | ≥ 70% | ≥ 70% |
| CCCS(=O)(=Nc1ccc2nn(-c3cccnc3)cc2n1)C(C)C (centres unmarked) [Compound 254] |  | ≥ 70% | ≥ 70% |
